We go through eight compounds from patent publication US5594019A, “6-heterocyclic-4-amino-1,3,4,5-tetrahydrobenz[CD]indoles” (Eli Lilly and Company, priority 1994, dated 1997).

Broadly, the IC50 is the midpoint of a concentration-inhibition curve. A higher IC50 goes with lower potency.

One assay deals with T1, 5-HT1D receptor (Bos taurus, UniProt F1MGM3).
T1 construct: Bovine brains were obtained and the caudate nuclei were dissected out; from tissue; host or cells: bovine caudate nuclei (membranes)
The assay is described as follows: In vitro binding activity at the 5-HT1D receptor, inhibition of [3H]5-HT binding to caudate nuclei membranes. As to conditions: [3H]5-HT (1.7-1.9 nM), bovine caudate membranes, 8-OH-DPAT and mesulergine 100 nM masking, 10 minutes at 37° C., pH 7.4. As for the experimental part:
The affinities of certin of the compounds of Formula 1 at the central 5-HT1D binding sites were determined using a modification of the binding assay described by Heuring and Peroutka, J. Neurosci., 7, 894 (1987). Bovine brains were obtained and the caudate nuclei were dissected out and frozen at -70° C. until the time that the membranes were prepared for the binding assays. At that time the tissues were homogenized in 40 volumes of ice-cold Tris-HCl buffer (50 mM, pH 7.4 at 22° C.) with a Techmar Tissumizer (setting 65 for 15 seconds), and the homogenate was centrifuged at 39,800xg for 10 minutes. The resulting pellet was then resuspended in the same buffer, and the centrifugation and resuspension process was repeated three additional times to wash the membranes. Between the second and third washes the resuspended membranes were incubated for 10 minutes at 37° C. to facilitate the removal of endogenous 5-HT. The final pellet was resuspended in Tris buffer to a concentration of 25 mg of original tissue wet weight/ml for use in the binding assay. […] The assay tubes were incubated for 10 minutes at 37° C., and the contents were then rapidly filtered through GF/B filters (pretreated with 0.5% polyethylenimine), followed by four 1 ml washes with ice-cold buffer. The radioactivity trapped by the filters was quantitated by liquid scintillation spectrometry, and specific [^3 H]5-HT binding to the 5-HT1D sites was defined as the difference between [^3 H]5-HT bound in the presence and absence of […] 5-HT.
In Table 2, the first column provides the example number of the compound evaluated while the second column provides the amount of test compound (expressed in nanomolar concentration) required to inhibit the binding of [^3 H]5-HT by 50% (indicated as IC50).

Assay [1] has as its system serotonin metabolite 5-hydroxyindole acetic acid (5HIAA). The assay is described as follows: Effect on serotonin turnover in vivo, decrease of 5HIAA concentration in whole brain. Conditions: Rattus norvegicus, 1 h, rats, whole brain 5HIAA, one hour after dosing (generally a 15-20% decrease). The arrangement: species or system Male albino rats. As for the experimental part: In another experiment certain compounds of Formula 1 were evaluated to determine ability to affect serotonin turnover in vivo. As a measure of such affect on serotonin turnover, the decrease of the serotonin metabolite 5-hydroxyindole acetic acid (5HIAA) was measured. The following protocol was employed.
Male albino rats were injected either subcutaneously or orally with an aqueous solution of the compound tested. The pH of the solution was adjusted as necessary to solubilize the compound. A control of the solution without the test compound was similarly administered to a control animal. The rats were decapitated one hour later. The whole brain was then removed and frozen on dry ice for storage prior to analysis. 5-Hydroxyindole acetic acid (5HIAA) concentration in whole brain was measured by liquid chromatography with electrochemical detection as reported by Fuller and Perry, "Effects of Buspirone and its Metabolite, 1-(2-pyrimidinyi)piperazine, on Brain Monoamines and Their Metabolites in Rats", J. Pharmacol. Ext. Ther., 248, p. 50-56 (1989), incorporated herein by reference.
In Table III, Column 1 provides the Example No. of the compound tested while Column 2 provides the minimum effective dose (in mg/kg) required to produce a statistically significant decrease in 5HIAA concentration relative to control (generally a 15-20% decrease) for both oral and subcutaneous methods of administration.

The target of the next assay is T2, 5-HT1A receptor (Rattus norvegicus, UniProt P19327).
T2 construct: the brains were rapidly chilled and dissected to obtain the hippocampi; from tissue; host or cells: hippocampus of male Sprague-Dawley rats (membranes)
T2 sequence (P19327 1-422): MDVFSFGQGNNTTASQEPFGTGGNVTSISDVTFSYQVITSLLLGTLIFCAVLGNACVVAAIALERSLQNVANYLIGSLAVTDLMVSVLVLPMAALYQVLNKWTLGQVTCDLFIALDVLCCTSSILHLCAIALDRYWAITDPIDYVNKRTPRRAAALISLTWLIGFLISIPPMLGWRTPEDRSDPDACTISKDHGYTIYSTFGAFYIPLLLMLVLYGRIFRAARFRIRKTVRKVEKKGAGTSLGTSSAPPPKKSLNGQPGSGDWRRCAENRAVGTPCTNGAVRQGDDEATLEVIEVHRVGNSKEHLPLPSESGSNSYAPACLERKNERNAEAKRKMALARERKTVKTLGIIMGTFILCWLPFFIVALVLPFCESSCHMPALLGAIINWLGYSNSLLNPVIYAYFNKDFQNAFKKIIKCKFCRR
The assay is described as follows: In vitro binding at the 5-HT1A receptor, inhibition of [3H]8-OH-DPAT binding to hippocampal membranes. Further details: species or system male Sprague-Dawley rats. As to conditions: [3H]8-OH-DPAT (1.0 nM), 10 minutes at 37° C., pH 7.4. As for the experimental part:
The affinities of certain of the compounds of Formula 1 at the central 5-HT1A receptors were determined using a modification of the binding assay described by Taylor, et al., J. Pharmacol. Exp. Ther., 236, 118-125 (1986). Membranes for the binding assay were prepared from male Sprague-Dawley rats (150-250 g). The animals were killed by decapitation, and the brains were rapidly chilled and dissected to obtain the hippocampi. Membranes from the hippocampi were either prepared that day, or the hippocampi were stored frozen (-70° C.) until the day of preparation. The membranes were prepared by homogenizing the tissue in 40 volumes of ice-cold Tris-HCl buffer (50 mM, pH 7.4 at 22° C.) using a Techmar Tissumizer (setting 65 for 15 seconds), and the homogenate was centrifuged at 39800xg for 10 minutes. The resulting pellet was then resuspended in the same buffer, and the centrifugation and resuspension process was repeated three additional times to wash the membranes. Between the second and third washes the resuspended membranes were incubated for 10 minutes at 37° C. to facilitate the removal of endogenous ligands. The final pellet was resuspended in 67 mM Tris-HCl, pH 7.4, to a concentration of 2 mg of tissue original wet weight/200 μl. This homogenate was stored frozen (-70° C.) until the day of the binding assay. […] The assay tubes were incubated for 10 minutes at 37° C., and the contents were then rapidly filtered through GF/B filters (pretreated with 0.5% polyethylenimine), tollowed by four 1 ml washes with ice-cold buffer. The radioactivity trapped by the filters was quantitated by liquid scintillation spectometry, and specific [^3 H]8-OH-DPAT binding to the 5-HT1A sites was defined as the difference between [^3 H]8-OH-DPAT bound in the presence and absence of 10 μM 5-HT.
In Table 1, the first column provides the example number of the compound evaluated while the second column provides the amount of test compound (expressed in nanomolar concentration) required to inhibit the binding of [^3 H]8-OH-DPAT by 50% (indicated as IC50).

Where [2] appears, read: po, p.o., read-out: Minimum Effective Dose (mg/kg) p.o., for a statistically significant decrease in 5HIAA concentration relative to control.
The mark [3] stands for this setting: sc, s.c., read-out: Minimum Effective Dose (mg/kg) s.c., for a statistically significant decrease in 5HIAA concentration relative to control.

Like-named read-outs stand apart in the source and are kept apart here.

T1 sequence (F1MGM3 1-403): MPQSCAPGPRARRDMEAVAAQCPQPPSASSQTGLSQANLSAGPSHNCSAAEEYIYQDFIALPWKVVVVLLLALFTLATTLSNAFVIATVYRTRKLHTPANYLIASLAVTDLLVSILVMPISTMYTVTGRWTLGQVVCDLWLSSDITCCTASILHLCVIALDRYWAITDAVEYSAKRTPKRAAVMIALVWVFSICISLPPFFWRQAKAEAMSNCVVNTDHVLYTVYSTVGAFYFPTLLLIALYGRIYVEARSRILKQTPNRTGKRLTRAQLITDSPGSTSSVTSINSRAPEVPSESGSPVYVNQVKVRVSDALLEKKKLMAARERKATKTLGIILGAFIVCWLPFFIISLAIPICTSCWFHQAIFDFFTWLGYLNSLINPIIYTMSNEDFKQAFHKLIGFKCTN

In the case of `CCCN(CCC)[C@H]1Cc2c[nH]c3ccc(-c4cccnc4)c(c23)C1` [Example 33, (-)(4R)-6-(3-pyridyl)-4-(di-n-propylamino)-1,3,4,5-tetrahydrobenz[cd]indol], the 50% inhibitory concentration (IC50) on 5-HT1D receptor turned out to be 0.0294 µM; at 5-HT1A receptor, 0.00087 µM. The results for the minimal effective dose in assay [1] (setting [2]) and in assay [1] (setting [3]) were > 10 mg/kg and 0.3 mg/kg, respectively.
For the compound `CCCN(CCC)[C@H]1Cc2c[nH]c3ccc(-c4ccno4)c(c23)C1` [Example 26, (-)(4R)-6-(5-isoxazolyl)-4-(di-n-propylamino)-1,3,4,5-tetrahydrobenz[cd]indole], the IC50 on 5-HT1D receptor was determined as 0.0464 µM; at 5-HT1A receptor, 0.0001 µM.
For `CCCN(CCC)[C@H]1Cc2c[nH]c3ccc(-c4nc(-c5ccccc5)no4)c(c23)C1` [Example 30, (-)(4R)-6-(3-phenyl-1,2,4-oxadiazol-5-yl)-4-(di-n-propylamino)-1,3,4,5-tetrahydrobenz-[cd]indole], the half-inhibitory concentration (IC50) at 5-HT1A receptor turned out to be 0.0071 µM.
Consider `CCCN(CCC)[C@@H]1Cc2c[nH]c3ccc(-c4ccon4)c(c23)C1` [Example 24, (+)(4S)-6-(3-isoxazoly)-4-(di-n-propylamino)-1,3,4,5-tetrahydrobenz[cd]indole], for which the figures for the IC50 on 5-HT1D receptor and on 5-HT1A receptor were 0.0186 µM and 0.00061 µM, respectively.
With `CCCN(CCC)[C@H]1Cc2c[nH]c3ccc(-c4nnc(-c5ccccc5)o4)c(c23)C1` [Example 35, (-)(4R)-6-(5-phenyl-1,3,4-oxadiazol-2-yl)-4-(di-n-propylamino)-1,3,4,5-tetrahydrobenz[cd]indole], the minimal effective dose in assay [1] (setting [3]) was > 1 mg/kg. Further, the 50% inhibitory concentration (IC50) on 5-HT1A receptor turned out to be 0.019 µM.
Regarding `CCCN(CCC)[C@H]1Cc2c[nH]c3ccc(-c4nnco4)c(c23)C1` [Example 34, (4R)-6-[2-(1,3,4-oxadiazolyl)]-4-(di-n-propylamino)-1,3,4,5-tetrahydrobenz[cd]indole], the results for the IC50 at 5-HT1D receptor and at 5-HT1A receptor were 0.577 µM and 0.00075 µM, respectively. Also, the minimal effective dose in assay [1] (setting [2]) is 10 mg/kg; in assay [1] (setting [3]), 0.1 mg/kg.
Take `CCCN(CCC)[C@H]1Cc2c[nH]c3ccc(-c4cnco4)c(c23)C1` [Example 32, (-)(4R)-6-(5-oxazolyl)-4-(di-n-propylamino)-1,3,4,5-tetrahydrobenz[cd]indole]: the IC50 on 5-HT1D receptor is 0.0744 µM; at 5-HT1A receptor, 0.00053 µM.
On to `CCCN(CCC)[C@H]1Cc2c[nH]c3ccc(-c4ncco4)c(c23)C1` [Example 31, (-)(4R)-6-(2-oxazolyl)-4-(di-n-propylamino)-1,3,4,5-tetrahydrobenz[cd]indole], for which the values for the IC50 at 5-HT1D receptor and at 5-HT1A receptor were 0.28 µM and 0.00277 µM, respectively. Further, the minimal effective dose in assay [1] (setting [2]) and in assay [1] (setting [3]) was 1 mg/kg throughout.
